In US4137380A, “Polyester granules and process” (priority 1972, dated 1979):
Like-named read-outs stand apart in the source and are kept apart here.

Tests used:
[1] = Dissociation constant in water (pKa value) of amine; format: physicochemical
Description: If more than one type of amine group is present in the molecule then the relevant pKa value is that of the most basic amine group.

[2] = Relative water solubility of amine; conditions: amine base
[3] = amine base, in water, read-out: pKa

Compound	pKa [1, 3]	Rel. W. Sol [2]	pKa ([1]; water)
C=C(C)C(=O)OCCN(C)C [DMAEMA, dimethylaminoethylmethacrylate]	5.4	high	–
Nc1ccccc1 [aniline]	–	insoluble	–
NCCCCCCCCCCCCN [dodecylene diamine]	–	insoluble	11.8
CCN [ethylamine]	–	high	–
NCCN [ethylene diamine]	–	high	–
Cc1ccccc1N [o-toluidine]	6	insoluble	–
vinyl pyridine	–	–	5.4
